From patent EP1757588A1, “Polymorph of N-Piperidinyl-5-(4-chlorophenyl)-1-(2,4-dichlorophenyl)-4,5-dihydro-1H-pyrazole-3-carboxamide and its use as a cannabinoid receptor modulator” (LABORATORIOS DEL DR. ESTEVE, S.A., priority 2005, dated 2007)

What was measured:
Herg channel = Herg channel (Homo sapiens, UniProt Q12809); test: Herg channel affinity; type: binding; details: general statement, no method or data given
Male NMRI mice = test: Mouse tetrad model (in-vivo bioassay for cannabinoid activity: hot plate, hypothermia, catalepsy, sedation); details: 5 mg/kg i.v.
Source text: II. In-vivo bioassay system for determination of cannabinoid activity
Substances with affinity for cannabinoid receptors are known to produce a wide range of pharmacological effects. It is also known that intravenous administration of a substance with affinity for cannabinoid receptors in mice produces analgesia , hypothermia, sedation and catalepsy. Individually, none of these effects can be considered as proof that a tested substance has affinity for cannabinoid-receptors, since all of these effects are common for various classes of centrally active agents. However, substances, which show all of these effects, i.e. substances that are active in this so-called tetrad model are considered to have affinity for the cannabinoid receptors. It has further been shown that cannabinoid receptor antagonists are higly effective in blocking the effects of a cannabinoid agonist in the mouse tetrad model.
The tetrad model is described, for example, in the publication of A. C. Howlett et al, International Union of Pharmacology XXVII. Classification of Cannabinoid Receptors, Pharmacol Rev 54, 161-202 , 2002 and David R. Compton et al., "In-vivo Characterization of a Specific Cannabinoid Receptor Antagonist (SR141716A) :Inhibition of Tetrahydrocannbinol- induced Responses and Apparent Agonist Activity", J. Pharmacol. Exp. Ther. 277 , 2, 586-594, 1996. […]
Before testing in the behavioral procedures given below, mice are acclimatized to the experimental setting. Pre-Treatment control values are determined for analgesia hot plate latency (in seconds), rectal temperature, sedation and catalepsy.
In order to determine the agonistic activty of the substance to be tested, the mice are injected intravenously with the substance to be tested or the vehicle alone. 15 minutes after injection, latency in hot plate analgesia is measured.
Rectal temperature, sedation and catalepsy are measured 20 minutes after injection.
In order to determine the antagonistic activity the identical procedure is used as for the determination of the agonistic effects, but with the difference that the substance to be evaluated for its antagonistic activity is injectected 5 minutes before the intravenous injection of 1.25 mg/kg Win-55,212 a known cannabinoid-receptor agonist.
The hot plate analgesia is determined according to the method described in Woolfe D. et al. "The evaluation of analgesic action of pethidine hydrochloride (Demerol)", J. Pharmacol. Exp. Ther. 80, 300-307,1944.
The mice are placed on a hot plate (Harvard Analgesimeter) at 55 ± 0.5 °C until they show a painful sensation by licking their paws or jumping and the time for these sensations to occur is recorded. This reading is considered the basal value (B). […]
The degree of analgesia is calculated from the formula : […]

Chain of Herg channel (Q12809 whole entry): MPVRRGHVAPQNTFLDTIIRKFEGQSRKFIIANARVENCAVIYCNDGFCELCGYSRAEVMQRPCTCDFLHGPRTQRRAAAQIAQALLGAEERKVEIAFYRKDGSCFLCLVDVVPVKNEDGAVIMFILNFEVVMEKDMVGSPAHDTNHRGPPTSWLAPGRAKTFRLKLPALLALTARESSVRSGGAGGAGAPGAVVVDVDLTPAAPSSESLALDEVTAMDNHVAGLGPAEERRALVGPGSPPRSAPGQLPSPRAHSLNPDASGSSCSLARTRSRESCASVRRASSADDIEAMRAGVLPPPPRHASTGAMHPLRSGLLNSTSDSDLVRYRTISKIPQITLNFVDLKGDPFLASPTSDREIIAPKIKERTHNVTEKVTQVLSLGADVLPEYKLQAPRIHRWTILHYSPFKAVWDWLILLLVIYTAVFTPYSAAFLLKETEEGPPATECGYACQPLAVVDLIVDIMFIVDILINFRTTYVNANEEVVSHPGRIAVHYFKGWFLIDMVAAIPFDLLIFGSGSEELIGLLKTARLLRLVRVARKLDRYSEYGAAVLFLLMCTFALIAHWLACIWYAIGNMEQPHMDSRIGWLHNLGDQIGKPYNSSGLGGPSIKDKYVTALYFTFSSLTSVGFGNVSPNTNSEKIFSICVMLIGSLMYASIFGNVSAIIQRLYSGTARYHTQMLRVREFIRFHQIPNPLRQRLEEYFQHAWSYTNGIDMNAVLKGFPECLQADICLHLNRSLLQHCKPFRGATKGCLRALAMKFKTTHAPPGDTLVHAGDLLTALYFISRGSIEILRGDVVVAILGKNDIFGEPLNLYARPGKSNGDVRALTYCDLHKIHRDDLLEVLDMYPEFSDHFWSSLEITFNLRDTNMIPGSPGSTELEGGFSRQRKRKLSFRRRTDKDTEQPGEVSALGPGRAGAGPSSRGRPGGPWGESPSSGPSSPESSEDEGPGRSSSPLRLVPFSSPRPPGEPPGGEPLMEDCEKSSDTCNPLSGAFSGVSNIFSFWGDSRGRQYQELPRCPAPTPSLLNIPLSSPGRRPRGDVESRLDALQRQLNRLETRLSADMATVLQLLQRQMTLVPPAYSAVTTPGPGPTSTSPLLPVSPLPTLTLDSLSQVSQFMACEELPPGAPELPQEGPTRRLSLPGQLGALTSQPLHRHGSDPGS

O=C(NN1CCCCC1)C1=NN(c2ccc(Cl)cc2Cl)C(c2ccc(Cl)cc2)C1 (stereo not drawn) [β-Polymorph, β-Polymorph of N-piperidinyl-5-(4-chlorophenyl)-1-(2,4-dichlorophenyl)-4,5-dihydro-1H-pyrazole-3-carboxamide]
Herg channel affinity (Herg channel): relatively weak

O=C(NN1CCCCC1)C1=NN(c2ccc(Cl)cc2Cl)C(c2ccc(Cl)cc2)C1 (centres unmarked) [Example 1, N-piperidinyl-5-(4-chlorophenyl)-1-(2,4-dichlorophenyl)-4,5-dihydro-1H-pyrazole-3-carboxamide]
Agonistic effect A: Hot-Plate test (Male NMRI mice): 0 | Agonistic effect B: Hypothermia (Male NMRI mice): 0 | Agonistic effect C: Catalepsy (Male NMRI mice): 0 | Agonistic effect D: Sedation (Male NMRI mice): 0
